We go through 20 compounds from US6465501B2, “Azolidines as β3 adrenergic receptor agonists” (Wyeth, priority 2000, dated 2002).

Where a name gives a salt, the structure may show the parent alone.

As usually defined, the melting point is the temperature of the solid-liquid transition. Consider `CN1C(=O)SC(Nc2ccc(CCNC[C@H](O)COc3ccc(OCc4ccccc4)cc3)cc2)C1=O` (some centres unmarked) (as salt: HBr) [Example 2, 5-{4-[2-({(2 S)-3-[4-(Benzyloxy}phenoxy]-2-hydroxypropyl}amino)ethyl]anilino}-3-methyl-1,3-thiazolidine-2,4-dione], for which the melting point lay in the range of 165 to 167 °C.

As for `O=C1NC(=O)C(Nc2ccc(CCNC[C@H](O)COc3ccc(F)cc3)cc2)S1` (some centres unmarked) (as salt: salt) (hydrate or solvate) [Example 8, 5-[4-(2-{[(2 S)-3-(4-Fluorophenoxy)-2-hydroxypropyl]amino}ethyl)anilino]-1,3-thiazolidine-2,4-dione], the melting point came out at 55 °C.

On to `O=C1NC(=O)C(Nc2ccc(CCNC[C@H](O)COc3ccccc3)cc2)S1` (some centres unmarked) (as salt: salt) (hydrate or solvate) [Example 9, 5-[4-(2-{[(2 S)-2-Hydroxy-3-phenoxypropyl]amino}ethyl)anilino]-1,3-thiazolidine-2,4-dione], for which the melting point is 55 °C.

In turn, `COc1ccc(OC[C@@H](O)CNCCc2ccc(NC3SC(=O)NC3=O)cc2)cc1` (some centres unmarked) (as salt: salt) (hydrate or solvate) [Example 10, 5-[4-(2-{[(2 S)-2-Hydroxy-3-(4-methoxyphenoxy)propyl]amino}ethyl)anilino]-1,3-thiazolidine-2,4-dione] yielded a melting point of 56 °C.

`O=C1NC(=O)C(Nc2ccc(CCNC[C@H](O)COc3cccc(O)c3)cc2)S1` (some centres unmarked) (as salt: salt) (hydrate or solvate) [Example 12, 5-[4-(2-{[(2 S)-2-Hydroxy-3-(3-hydroxyphenoxy)propyl]amino}ethyl)anilino]-1,3-thiazolidine-2,4-dione] registered a melting point of 65 °C.

`O=C1NC(=O)C(Nc2ccc(CCNC[C@H](O)COc3cccc4[nH]c5ccccc5c34)cc2)S1` (some centres unmarked) (as salt: salt) (hydrate or solvate) [Example 13, 5-[4-(2-{[(2 S)-3-(9 H-Carbazol-4-yloxy)-2-hydroxypropyl]amino}ethyl)anilino]-1 ,3-thiazolidine-2,4-dione] came in with a melting point of 140 °C.

Turning to `CS(=O)(=O)Nc1cc([C@H](O)CNCCc2ccc(NC3SC(=O)NC3=O)cc2)ccc1O` (some centres unmarked) (as salt: salt) (hydrate or solvate) [Example 14, N{5-[(1 S)-2-({4-[(2,4-Dioxo-1,3-thiazolidin-5-yl)amino]phenethyl}amino)-1-hydroxyethyl]-2-hydroxyphenyl}methanesulfonamide], the melting point came out at 130 °C.

Compound `O=C1NC(=O)C(Nc2ccc(CCNC[C@H](O)COc3ccc4occc4c3)cc2)S1` (some centres unmarked) (as salt: salt) (hydrate or solvate) [Example 15, 5-[4-(2-{[(2 S)-3-(1-Benzofuran-5-yloxy)-2-hydroxypropyl]amino}ethyl)anilino]-1,3-thiazolidine-2,4-dione] displayed a melting point of 50 °C.

Compound `CN(c1ccc(CCNC[C@H](O)COc2ccccc2)cc1)C1SC(=O)NC1=O` (some centres unmarked) (as salt: salt) (hydrate or solvate) [Example 17, 5-[4-(2-{[(2 S)-2-Hydroxy-3-phenoxypropyl]amino}ethyl)(methyl)anilino]-1,3-thiazolidine-2,4-dione.] yielded a melting point of 58 °C.

Take `CC(Cc1ccc(NC2SC(=O)NC2=O)cc1)NC[C@H](O)c1cccc(Cl)c1` (some centres unmarked) (as salt: salt) (hydrate or solvate) [Example 18, 5-[4-(2-{[(2 R)-2-(3-Chlorophenyl)-2-hydroxyethyl]amino}propyl)anilino]-1,3-thiazolidine-2,4-dione]: the melting point was 83 to 85 °C.

With `O=C1NC(=O)C(Nc2ccc(CCNC[C@H](O)COc3ccc(Oc4ccccc4)cc3)cc2)S1` (some centres unmarked) (as salt: salt) [Example 1, 5-[4-(2-{[(2 S)-2-Hydroxy-3-(4-phenoxyphenoxy)propyl]amino}ethyl)anilino]-1,3-thiazolidine-2,4-dione], the melting point was 72 to 74 °C.

Regarding `O=C1NC(=O)C(Nc2ccc(CCNC[C@H](O)c3ccccc3)cc2)S1` (some centres unmarked) (as salt: salt) [Example 7, 5-[4-(2-{[(2 R)-2-Hydroxy-2-phenylethyl]amino}ethyl)anilino]-1,3-thiazolidine-2,4-dione], the melting point turned out to be 55 °C.

Consider `O=C1NC(=O)C(Nc2ccc(CCNC[C@@H](O)COc3cccc4[nH]c(=O)[nH]c34)cc2)S1` (some centres unmarked) (as salt: salt) [Example 19, 5-{4-[2-({(2 R)-2-Hydroxy-3-[(2-oxo-2,3-di hydro-1 H-benzimidazol-4-yl)oxy]propyl}amino)ethyl]anilino}-1,3-thiazolidine-2,4-dione], for which the melting point was determined as 172 °C.

For `O=C1NC(=O)C(N(Cc2ccc(Br)cc2)c2ccc(CCNC[C@H](O)COc3ccc(OCc4ccccc4)cc3)cc2)S1` (some centres unmarked) (as salt: salt) [Example 25, 5-[(4-{2-[(2 S)-3-(4-Benzyloxy-phenoxy)-2-hydroxy-propylamino]-ethyl}-phenyl)-(4-bromo-benzyl)-amino]-thiazolidine-2,4-dione], the melting point was in the range of 50 to 52 °C.

In the case of `CN(c1ccc(CCNC[C@H](O)COc2ccc(OCc3ccccc3)cc2)cc1)C1SC(=O)NC1=O` (some centres unmarked) (as salt: salt) [Example 26, 5-[(4-{2-[(2 S)-3-(4-Benzyloxy-phenoxy)-2-hydroxy-propylamino]-ethyl}-phenyl)-methyl-amino]-thiazolidine-2,4-dione], the melting point was in the range of 51 to 53 °C.

Consider `O=C1NC(=O)C(Nc2ccc(CCNC[C@H](O)COc3ccc4ccccc4c3)cc2)S1` (some centres unmarked) (hydrate or solvate) [Example 21, 5-(4-{2-[(2 S)-2-Hydroxy-3-(naphthalen-2-yloxy)-propylamino]-ethyl}-phenylamino)-thiazolidine-2,4-dione], for which the melting point was in the range of 90 to 91 °C.

Regarding `O=C1NC(=O)C(Nc2ccc(CCNCC(O)COc3cccc4ccccc34)cc2)S1` (centres unmarked) (hydrate or solvate) [Example 23, 5-(4-{2-[2-Hydroxy-3-(naphthalen-1-yloxy)-propylamino]-ethyl}-phenylamino)-thiazolidine-2,4-dione], the melting point fell in the range of 61 to 62 °C.

On to `O=C1NC(=O)C(Nc2ccc(CCNC[C@H](O)COc3ccc4c(c3)OCO4)cc2)S1` (some centres unmarked) (hydrate or solvate) [Example 24, 5-(4-{2-[(2 S)-3-(Benzo[1,3]dioxol-5-yloxy)-2-hydroxy-propylamino]-ethyl}-phenylamino)-thiazolidine-2,4-dione], for which the melting point was 65 °C (dec.).

Consider `O=C1NC(=O)C(N(CC#Cc2ccc(F)cc2)c2ccc(CCNC[C@H](O)COc3ccc(OCc4ccccc4)cc3)cc2)S1` (some centres unmarked) (hydrate or solvate) [Example 27, 5-[(4-{2-[(2 S)-3-(4-Benzyloxy-phenoxy)-2-hydroxy-propylamino]-ethyl}-phenyl)-[3-(4-fluoro-phenyl)-prop-2-ynyl]-amino}-thiazolidine-2,4-dione], for which the melting point is 99 to 101 °C.

In the case of `O=C1NC(=O)C(N(Cc2ccc(Br)cc2)c2ccc(CCNC[C@H](O)COc3ccc(O)cc3)cc2)S1` (some centres unmarked) (hydrate or solvate) [Example 28, 5-[(4-Bromo-benzyl)-(4-{2-[(2 S)-2-hydroxy-3-(4-hydroxy-phenoxy)-propylamino]-ethyl}-phenyl)-amino]-thiazolidine-2,4-dione], the melting point was 79 °C (dec.).
